Reference: the NIST ThermoML archive (doi:10.1007/s10765-011-0939-5)
± gives the expanded uncertainty stated by the source.

Conditions: Crystal; triple pt. cell

## [20Ne] [neon-20]
  Triple point temperature: 24.54 ± 8e-05 K

## [22Ne] [neon-22]
  Triple point temperature: 24.69 ± 8e-05 K
